Reference: patent publication US20230382949A1 (HEPTARES THERAPEUTICS LIMITED, priority 2020, published 2023)
Like-named read-outs stand apart in the source and are kept apart here. Starred links: 1 amine or outer side, 2 acyl side, 3 side chain; linkers in the order of their positions; H or OH if unused. Non-standard residues stand in square brackets, D forms with d. Residues, ends and D or L forms follow the SMILES beside them. *: point of attachment. Ala(piperidin-4-yl) = O=C([C@H](CC1CCN([*:3])CC1)N[*:1])[*:2]; Malonyl(2,2-Me2,histaminyl) = CC(C)(C(=O)NCCc1cnc[nH]1)C(=O)*; dNMeBip = CN[C@H](Cc1ccc(-c2ccccc2)cc1)C(=O)O; dBip = N[C@H](Cc1ccc(-c2ccccc2)cc1)C(=O)O; Oic = O=C(O)[C@@H]1C[C@@H]2CCCC[C@@H]2N1; Phe(4-Br) = N[C@@H](Cc1ccc(Br)cc1)C(=O)O; hArg = N=C(N)NCCCC[C@H](N)C(=O)O; Pip = O=C(O)[C@@H]1CCCCN1; Nle = CCCC[C@H](N)C(=O)O; Aib = CC(C)(N)C(=O)O

Tests used:
human Apelin receptor [1] = biological target: T1, human Apelin receptor (Homo sapiens, UniProt P35414); assay: β-arrestin accumulation assay, functional agonism of human Apelin receptors; assay type: cell-based
T1 construct: host or cells: CHO-K1 cells
Experimental: β-arrestin assay. […] After 16 h incubation at 37° C. media was removed and cells were incubated at 37° C. for 90 min in serum free media containing increasing concentrations of test agonist. The assay reaction was stopped by adding detection reagent (DiscoveRx) and incubation for 60 min in the dark. Levels of receptor activation were then measured on a PheraStar fluorescence plate reader (BMG LabTech) and EC50 values were determined using Graphpad Prism.
T1 sequence (P32121 whole entry partner, one chain of several): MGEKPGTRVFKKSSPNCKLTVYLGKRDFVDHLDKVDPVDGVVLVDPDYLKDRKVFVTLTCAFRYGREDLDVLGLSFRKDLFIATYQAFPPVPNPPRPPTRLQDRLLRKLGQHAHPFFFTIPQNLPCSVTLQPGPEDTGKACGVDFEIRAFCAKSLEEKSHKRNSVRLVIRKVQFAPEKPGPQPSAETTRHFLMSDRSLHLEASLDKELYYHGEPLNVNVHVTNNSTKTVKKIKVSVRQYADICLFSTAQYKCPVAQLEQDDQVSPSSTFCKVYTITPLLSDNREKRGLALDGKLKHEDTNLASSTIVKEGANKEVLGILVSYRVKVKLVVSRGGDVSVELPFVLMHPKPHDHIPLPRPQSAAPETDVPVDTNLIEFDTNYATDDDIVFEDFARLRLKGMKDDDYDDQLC

human Apelin receptor [2] = biological target: T2, human Apelin receptor (Homo sapiens, UniProt P35414); assay: cAMP accumulation assay (HTRF), functional agonism of human Apelin receptors; assay type: cell-based; details: for Emax: CHO
T2 sequence (P35414 1-380): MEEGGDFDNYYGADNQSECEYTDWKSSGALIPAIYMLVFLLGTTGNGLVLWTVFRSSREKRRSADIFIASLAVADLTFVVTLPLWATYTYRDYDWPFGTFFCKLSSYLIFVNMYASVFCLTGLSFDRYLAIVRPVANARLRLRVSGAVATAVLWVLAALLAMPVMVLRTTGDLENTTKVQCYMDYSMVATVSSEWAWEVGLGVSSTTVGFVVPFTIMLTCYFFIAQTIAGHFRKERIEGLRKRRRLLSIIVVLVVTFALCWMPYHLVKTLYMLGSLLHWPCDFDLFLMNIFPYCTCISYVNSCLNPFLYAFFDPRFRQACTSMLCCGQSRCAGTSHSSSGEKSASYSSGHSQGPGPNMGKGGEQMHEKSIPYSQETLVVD
From the text: cAMP functional assay. cAMP production was quantified using the Homogeneous Time-Resolved Fluorescence (HTRF) cAMP dynamic-2 assay (Cisbio, France).

[3] = Human Apelin agonist cAMP assay, CHO cells stably expressing the human Apelin receptor, 3 uM forskolin
[4] = pEC50, Human Apelin agonist cAMP assay, CHO cells stably expressing the human Apelin receptor, 3 uM forskolin

## CCCC[C@H](NC(=O)[C@@H]1C[C@@H]2CCCC[C@@H]2N1C(=O)[C@H](C)NC(=O)[C@H](CC1CCNCC1)NC(=O)[C@H](Cc1ccc(Br)cc1)NC(=O)C(C)(C)NC(=O)[C@H](CC(C)C)NC(=O)[C@@H](CCCNC(=N)N)NC(=O)[C@@H]1CCCCN1C(=O)[C@H](CCCCNC(=N)N)NC(=O)[C@H](CCC(N)=O)NC(=O)C(C)(C)C(=O)NCCc1cnc[nH]1)C(=O)N1CCC[C@H]1C(=O)N[C@H](Cc1ccc(-c2ccccc2)cc1)C(=O)O [Example 62] ({Malonyl(2,2-Me2,histaminyl)}-Q[hArg][Pip][dR]L[Aib][Phe(4-Br)][Ala(piperidin-4-yl)]A[Oic][Nle]P[dBip]-OH)
Human Apelin receptor [1]
  EC50: > 10000 nM
Human Apelin receptor [2]; read-out: Emax
  Emax: 31.7%
Human Apelin receptor [2]; read-out: pEC50 (converted)
  EC50: 100 nM

## CCCC[C@H](NC(=O)[C@@H]1C[C@@H]2CCCC[C@@H]2N1C(=O)CNC(=O)[C@H](CC1CCNCC1)NC(=O)[C@H](Cc1ccc(Br)cc1)NC(=O)C(C)(C)NC(=O)[C@H](CC(C)C)NC(=O)[C@@H](CCCNC(=N)N)NC(=O)[C@@H]1CCCN1C(=O)[C@H](CCCCNC(=N)N)NC(=O)[C@H](CCC(N)=O)NC(=O)[C@@H](CCCNC(=N)N)NC(=O)C(C)(C)C(=O)NCCc1cnc[nH]1)C(=O)N1CCC[C@H]1C(=O)N[C@H](Cc1ccc(-c2ccccc2)cc1)C(=O)O [Example 33] ({Malonyl(2,2-Me2,histaminyl)}-[dR]Q[hArg]P[dR]L[Aib][Phe(4-Br)][Ala(piperidin-4-yl)]G[Oic][Nle]P[dBip]-OH)
Human Apelin receptor [1]
  EC50: > 10000 nM
Human Apelin receptor [2]; [3]
  Emax: 63%
Human Apelin receptor [2]; [4]
  EC50: 25.1 nM

## CC(C)C[C@H](NC(=O)[C@@H](CCCNC(=N)N)NC(=O)[C@@H]1CCCN1C(=O)[C@H](CCCCNC(=N)N)NC(=O)[C@H](CCC(N)=O)NC(=O)C(C)(C)C(=O)NCCc1cnc[nH]1)C(=O)NC(C)(C)C(=O)N[C@@H](Cc1cnc[nH]1)C(=O)N[C@@H](CC1CCNCC1)C(=O)NCC(=O)N1[C@H](C(=O)N[C@@H](Cc2ccc(Br)cc2)C(=O)N2CCC[C@H]2C(=O)N(C)[C@H](Cc2ccc(-c3ccccc3)cc2)C(=O)O)C[C@@H]2CCCC[C@@H]21 [Example 57] ({Malonyl(2,2-Me2,histaminyl)}-Q[hArg]P[dR]L[Aib]H[Ala(piperidin-4-yl)]G[Oic][Phe(4-Br)]P[dNMeBip]-OH)
Human Apelin receptor [1]
  EC50: > 10000 nM
Human Apelin receptor [2]; [3]
  Emax: 45.9%
Human Apelin receptor [2]; [4]
  EC50: 63.1 nM

## CC(C)C[C@H](NC(=O)[C@@H](CCCNC(=N)N)NC(=O)[C@@H]1CCCN1C(=O)[C@H](CCCCNC(=N)N)NC(=O)[C@H](CCC(N)=O)NC(=O)[C@@H](CCCNC(=N)N)NC(=O)C(C)(C)C(=O)NCCc1c[nH]cn1)C(=O)NC(C)(C)C(=O)N[C@@H](Cc1c[nH]cn1)C(=O)N[C@@H](CC1CCNCC1)C(=O)N[C@@H](C)C(=O)N1[C@H](C(=O)N[C@@H](Cc2ccc(Br)cc2)C(=O)N2CCC[C@H]2C(=O)N[C@H](Cc2ccc(-c3ccccc3)cc2)C(=O)O)C[C@@H]2CCCC[C@@H]21 [Example 16] ({Malonyl(2,2-Me2,histaminyl)}-[dR]Q[hArg]P[dR]L[Aib]H[Ala(piperidin-4-yl)]A[Oic][Phe(4-Br)]P[dBip]-OH)
Human Apelin receptor [1]
  EC50: > 1000 nM
Human Apelin receptor [2]; [3]
  Emax: 64.8%
Human Apelin receptor [2]; [4]
  EC50: 5.01 nM

## CC(C)C[C@H](NC(=O)[C@H](CCCNC(=N)N)NC(=O)[C@@H]1CCCN1C(=O)[C@@H](CCCNC(=N)N)NC(=O)[C@H](CCC(N)=O)NC(=O)[C@@H](CCCNC(=N)N)NC(=O)C(C)(C)C(=O)NCCc1cnc[nH]1)C(=O)NC(C)(C)C(=O)N[C@@H](Cc1ccc(Br)cc1)C(=O)N[C@@H](CC1CCNCC1)C(=O)NCC(=O)N1[C@H](C(=O)N[C@@H](Cc2ccccc2)C(=O)N2CCC[C@H]2C(=O)N[C@H](Cc2ccc(-c3ccccc3)cc2)C(=O)O)C[C@@H]2CCCC[C@@H]21 [Example 35] ({Malonyl(2,2-Me2,histaminyl)}-[dR]Q[dR]PRL[Aib][Phe(4-Br)][Ala(piperidin-4-yl)]G[Oic]FP[dBip]-OH)
Human Apelin receptor [1]
  EC50: > 10000 nM
Human Apelin receptor [2]; [3]
  Emax: 35.3%
Human Apelin receptor [2]; [4]
  EC50: 63.1 nM
